# Assay results published in patent publication US8580918B2, “Peptidic GLP-2 agonists” (Ferring B.V., priority 2009, dated 2013).
# Where a SMILES comes first, the peptide text is derived from it. [ ]: non-standard residue; d: D form. The star is where a group is joined. X2 = NC(=O)COCC(=O)NCCCOCCOCCOCCCN*; NH(4-picolyl) = c1cc(CN*)ccn1; PEG4 = NCCOCCOCCOCCOCCC(=O)O; Nle = CCCC[C@H](N)C(=O)O; NHBn = c1ccc(CN*)cc1; NHiBu = CC(C)CN*
# Assay: Pharmacokinetics in rats after intravenous bolus injection (systemic clearance)
# Type: in vivo
# Conditions: rat, plasma, 0.2 mg FB/kg, adult male Sprague-Dawley rats, i.v. bolus, dose 0.20 mg FB/kg, read-out: CL (ml/kg/min) Average
# Summary of the method: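 Adult male Sprague-Dawley rats (3-4, doubly cannulated) given IV jugular bolus at 0.1-1.0 mg/kg; serial carotid blood to K2EDTA plasma, LC/MS/MS quantitation. CL = dose/kg divided by AUC∞ (noncompartmental, trapezoid); mean ± SD.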
row,clearance,Structure (SMILES)
1,0.17 mL/kg/min,"CCCC[C@H](NC(=O)[C@H](CCC(=O)O)NC(=O)[C@H](CC(=O)O)NC(=O)[C@H](CO)NC(=O)[C@H](Cc1ccccc1)NC(=O)[C@H](CO)NC(=O)CNC(=O)[C@H](CC(=O)O)NC(=O)CNC(=O)[C@@H](N)Cc1c[nH]cn1)C(=O)N[C@H](Cc1ccccc1)C(=O)N[C@H](C(=O)N[C@H](C(=O)N[C@@H](CC(C)C)C(=O)N[C@@H](CC(=O)O)C(=O)N[C@@H](CC(C)C)C(=O)N[C@@H](CC(C)C)C(=O)N[C@@H](C)C(=O)N[C@@H](C)C(=O)N[C@@H](CCCNC(=N)N)C(=O)N[C@@H](CC(=O)O)C(=O)N[C@@H](Cc1ccccc1)C(=O)N[C@H](C(=O)N[C@@H](CC(N)=O)C(=O)N[C@@H](Cc1c[nH]c2ccccc12)C(=O)N[C@@H](CC(C)C)C(=O)N[C@H](C(=O)N[C@@H](CCC(N)=O)C(=O)N[C@H](C(=O)N[C@@H](CCCCN)C(=O)N[C@H](C(=O)N[C@H](C(=O)N[C@@H](CC(=O)O)C(=O)NCC(C)C)[C@@H](C)O)[C@@H](C)CC)[C@@H](C)O)[C@@H](C)CC)[C@@H](C)CC)[C@@H](C)CC)[C@@H](C)O [Compound 57, [Gly2,Nle10,D-Phe11,Leu16] hGLP-2(1-33)-NH-isobutyl] (H-HGDGSFSDE[Nle][dF]TILDLLAARDFINWLIQTKITD-NHiBu)"
2,0.1 mL/kg/min,"CCCC[C@H](NC(=O)[C@H](CCC(=O)O)NC(=O)[C@H](CC(=O)O)NC(=O)[C@H](CO)NC(=O)[C@H](Cc1ccccc1)NC(=O)[C@H](CO)NC(=O)CNC(=O)[C@H](CC(=O)O)NC(=O)CNC(=O)[C@@H](N)Cc1c[nH]cn1)C(=O)N[C@H](Cc1ccccc1)C(=O)N[C@H](C(=O)N[C@H](C(=O)N[C@@H](CC(C)C)C(=O)N[C@@H](CC(=O)O)C(=O)N[C@@H](CC(C)C)C(=O)N[C@@H](CC(C)C)C(=O)N[C@@H](C)C(=O)N[C@@H](C)C(=O)N[C@@H](CCCNC(=N)N)C(=O)N[C@@H](CC(=O)O)C(=O)N[C@@H](Cc1ccccc1)C(=O)N[C@H](C(=O)N[C@@H](CC(N)=O)C(=O)N[C@@H](Cc1c[nH]c2ccccc12)C(=O)N[C@@H](CC(C)C)C(=O)N[C@H](C(=O)N[C@@H](CCC(N)=O)C(=O)N[C@H](C(=O)N[C@@H](CCCCN)C(=O)N[C@H](C(=O)N[C@H](C(=O)N[C@@H](CC(=O)O)C(=O)NCc1ccccc1)[C@@H](C)O)[C@@H](C)CC)[C@@H](C)O)[C@@H](C)CC)[C@@H](C)CC)[C@@H](C)CC)[C@@H](C)O [Compound 58, [Gly2,Nle10,D-Phe11,Leu16] hGLP-2(1-33)-NH-Benzyl] (H-HGDGSFSDE[Nle][dF]TILDLLAARDFINWLIQTKITD-NHBn)"
3,0.22 mL/kg/min,"CCCC[C@H](NC(=O)[C@H](CCC(=O)O)NC(=O)[C@H](CC(=O)O)NC(=O)[C@H](CO)NC(=O)[C@H](Cc1ccccc1)NC(=O)[C@H](CO)NC(=O)CNC(=O)[C@H](CC(=O)O)NC(=O)CNC(=O)[C@@H](N)Cc1cnc[nH]1)C(=O)N[C@H](Cc1ccccc1)C(=O)N[C@H](C(=O)N[C@H](C(=O)N[C@@H](CC(C)C)C(=O)N[C@@H](CC(=O)O)C(=O)N[C@@H](CC(C)C)C(=O)N[C@@H](CC(C)C)C(=O)N[C@@H](C)C(=O)N[C@@H](C)C(=O)N[C@@H](CCCNC(=N)N)C(=O)N[C@@H](CC(=O)O)C(=O)N[C@@H](Cc1ccccc1)C(=O)N[C@H](C(=O)N[C@@H](CC(N)=O)C(=O)N[C@@H](Cc1c[nH]c2ccccc12)C(=O)N[C@@H](CC(C)C)C(=O)N[C@H](C(=O)N[C@@H](CCC(N)=O)C(=O)N[C@H](C(=O)N[C@@H](CCCCN)C(=O)N[C@H](C(=O)N[C@H](C(=O)N[C@@H](CC(=O)O)C(=O)O)[C@@H](C)O)[C@@H](C)CC)[C@@H](C)O)[C@@H](C)CC)[C@@H](C)CC)[C@@H](C)CC)[C@@H](C)O [Compound 59, [Gly2,Nle10,D-Phe11,Leu16] hGLP-2(1-33)-OH] (H-HGDGSFSDE[Nle][dF]TILDLLAARDFINWLIQTKITD-OH)"
4,0.29 mL/kg/min,"CCCC[C@H](NC(=O)[C@H](CCC(=O)O)NC(=O)[C@H](CC(=O)O)NC(=O)[C@H](CO)NC(=O)[C@H](Cc1ccccc1)NC(=O)[C@H](CO)NC(=O)CNC(=O)[C@H](CC(=O)O)NC(=O)CNC(=O)[C@@H](N)Cc1c[nH]cn1)C(=O)N[C@H](Cc1ccccc1)C(=O)N[C@H](C(=O)N[C@H](C(=O)N[C@@H](CC(C)C)C(=O)N[C@@H](CC(=O)O)C(=O)N[C@@H](Cc1ccccc1)C(=O)N[C@@H](CC(C)C)C(=O)N[C@@H](C)C(=O)N[C@@H](C)C(=O)N[C@@H](CCCNC(=N)N)C(=O)N[C@@H](CC(=O)O)C(=O)N[C@@H](Cc1ccccc1)C(=O)N[C@H](C(=O)N[C@@H](CC(N)=O)C(=O)N[C@@H](Cc1c[nH]c2ccccc12)C(=O)N[C@@H](CC(C)C)C(=O)N[C@H](C(=O)N[C@@H](CCC(N)=O)C(=O)N[C@H](C(=O)N[C@@H](CCCCN)C(=O)N[C@H](C(=O)N[C@H](C(=O)N[C@@H](CC(=O)O)C(=O)NCCCOCCOCCOCCCNC(=O)COCC(N)=O)[C@@H](C)O)[C@@H](C)CC)[C@@H](C)O)[C@@H](C)CC)[C@@H](C)CC)[C@@H](C)CC)[C@@H](C)O [Compound 60, [Gly2,Nle10,D-Phe11,Phe16] hGLP-2(1-33)-NH—CH2—((CH2)2O)3—(CH2)3—NH—C(O)—CH2—O—CH2—C(O)—NH2] (H-HGDGSFSDE[Nle][dF]TILDFLAARDFINWLIQTKITD-X2)"

# Second part, the compound before the results:
row,Structure (SMILES),clearance
1,"CCCC[C@H](NC(=O)[C@H](CCC(=O)O)NC(=O)[C@H](CC(=O)O)NC(=O)[C@H](CO)NC(=O)[C@H](Cc1ccccc1)NC(=O)[C@H](CO)NC(=O)CNC(=O)[C@H](CC(=O)O)NC(=O)CNC(=O)[C@@H](N)Cc1cnc[nH]1)C(=O)N[C@H](Cc1ccccc1)C(=O)N[C@H](C(=O)N[C@H](C(=O)N[C@@H](CC(C)C)C(=O)N[C@@H](CC(=O)O)C(=O)N[C@@H](CC(C)C)C(=O)N[C@@H](CC(C)C)C(=O)N[C@@H](C)C(=O)N[C@@H](C)C(=O)N[C@@H](CCCNC(=N)N)C(=O)N[C@@H](CC(=O)O)C(=O)N[C@@H](Cc1ccccc1)C(=O)N[C@H](C(=O)N[C@@H](CC(N)=O)C(=O)N[C@@H](Cc1c[nH]c2ccccc12)C(=O)N[C@@H](CC(C)C)C(=O)N[C@H](C(=O)N[C@@H](CCC(N)=O)C(=O)N[C@H](C(=O)N[C@@H](CCCCN)C(=O)N[C@H](C(=O)N[C@H](C(=O)N[C@@H](CC(=O)O)C(=O)NCC)[C@@H](C)O)[C@@H](C)CC)[C@@H](C)O)[C@@H](C)CC)[C@@H](C)CC)[C@@H](C)CC)[C@@H](C)O [Compound 53, [Gly2,Nle10,D-Phe11,Leu16] hGLP-2(1-33)-NHEt] (H-HGDGSFSDE[Nle][dF]TILDLLAARDFINWLIQTKITD-NHEt)",0.19 mL/kg/min
2,"CCCC[C@H](NC(=O)[C@H](CCC(=O)O)NC(=O)[C@H](CC(=O)O)NC(=O)[C@H](CO)NC(=O)[C@H](Cc1ccccc1)NC(=O)[C@H](CO)NC(=O)CNC(=O)[C@H](CC(=O)O)NC(=O)CNC(=O)[C@@H](N)Cc1c[nH]cn1)C(=O)N[C@H](Cc1ccccc1)C(=O)N[C@H](C(=O)N[C@H](C(=O)N[C@@H](CC(C)C)C(=O)N[C@@H](CC(=O)O)C(=O)N[C@@H](CC(C)C)C(=O)N[C@@H](CC(C)C)C(=O)N[C@@H](C)C(=O)N[C@@H](C)C(=O)N[C@@H](CCCNC(=N)N)C(=O)N[C@@H](CC(=O)O)C(=O)N[C@@H](Cc1ccccc1)C(=O)N[C@H](C(=O)N[C@@H](CC(N)=O)C(=O)N[C@@H](Cc1c[nH]c2ccccc12)C(=O)N[C@@H](CC(C)C)C(=O)N[C@H](C(=O)N[C@@H](CCC(N)=O)C(=O)N[C@H](C(=O)N[C@@H](CCCCN)C(=O)N[C@H](C(=O)N[C@H](C(=O)N[C@@H](CC(=O)O)C(=O)NCc1ccncc1)[C@@H](C)O)[C@@H](C)CC)[C@@H](C)O)[C@@H](C)CC)[C@@H](C)CC)[C@@H](C)CC)[C@@H](C)O [Compound 54, [Gly2,Nle10,D-Phe11,Leu16] hGLP-2(1-33)-NH-4-Pic] (H-HGDGSFSDE[Nle][dF]TILDLLAARDFINWLIQTKITD-{NH(4-picolyl)})",0.27 mL/kg/min
3,"CCCC[C@H](NC(=O)[C@H](CCC(=O)O)NC(=O)[C@H](CC(=O)O)NC(=O)[C@H](CO)NC(=O)[C@H](Cc1ccccc1)NC(=O)[C@H](CO)NC(=O)CNC(=O)[C@H](CC(=O)O)NC(=O)CNC(=O)[C@@H](N)Cc1cnc[nH]1)C(=O)N[C@H](Cc1ccccc1)C(=O)N[C@H](C(=O)N[C@H](C(=O)N[C@@H](CC(C)C)C(=O)N[C@@H](CC(=O)O)C(=O)N[C@@H](CC(C)C)C(=O)N[C@@H](CC(C)C)C(=O)N[C@@H](C)C(=O)N[C@@H](C)C(=O)N[C@@H](CCCNC(=N)N)C(=O)N[C@@H](CC(=O)O)C(=O)N[C@@H](Cc1ccccc1)C(=O)N[C@H](C(=O)N[C@@H](CC(N)=O)C(=O)N[C@@H](Cc1c[nH]c2ccccc12)C(=O)N[C@@H](CC(C)C)C(=O)N[C@H](C(=O)N[C@@H](CCC(N)=O)C(=O)N[C@H](C(=O)N[C@@H](CCCCN)C(=O)N[C@H](C(=O)N[C@H](C(=O)N[C@@H](CC(=O)O)C(=O)NCCOCCOCCOCCOCCC(N)=O)[C@@H](C)O)[C@@H](C)CC)[C@@H](C)O)[C@@H](C)CC)[C@@H](C)CC)[C@@H](C)CC)[C@@H](C)O [Compound 55, [Gly2,Nle10,D-Phe11,Leu16] hGLP-2(1-33)-NH—((CH2)2O)4—(CH2)2—C(O)—NH2] (H-HGDGSFSDE[Nle][dF]TILDLLAARDFINWLIQTKITD[PEG4]-NH2)",0.23 mL/kg/min
4,"CCCC[C@H](NC(=O)[C@H](CCC(=O)O)NC(=O)[C@H](CC(=O)O)NC(=O)[C@H](CO)NC(=O)[C@H](Cc1ccccc1)NC(=O)[C@H](CO)NC(=O)CNC(=O)[C@H](CC(=O)O)NC(=O)CNC(=O)[C@@H](N)Cc1c[nH]cn1)C(=O)N[C@H](Cc1ccccc1)C(=O)N[C@H](C(=O)N[C@H](C(=O)N[C@@H](CC(C)C)C(=O)N[C@@H](CC(=O)O)C(=O)N[C@@H](CC(C)C)C(=O)N[C@@H](CC(C)C)C(=O)N[C@@H](C)C(=O)N[C@@H](C)C(=O)N[C@@H](CCCNC(=N)N)C(=O)N[C@@H](CC(=O)O)C(=O)N[C@@H](Cc1ccccc1)C(=O)N[C@H](C(=O)N[C@@H](CC(N)=O)C(=O)N[C@@H](Cc1c[nH]c2ccccc12)C(=O)N[C@@H](CC(C)C)C(=O)N[C@H](C(=O)N[C@@H](CCC(N)=O)C(=O)N[C@H](C(=O)N[C@@H](CCCCN)C(=O)N[C@H](C(=O)N[C@H](C(=O)N[C@@H](CC(=O)O)C(=O)NCCCOCCOCCOCCCNC(=O)COCC(N)=O)[C@@H](C)O)[C@@H](C)CC)[C@@H](C)O)[C@@H](C)CC)[C@@H](C)CC)[C@@H](C)CC)[C@@H](C)O [Compound 56, [Gly2,Nle10,D-Phe11,Leu16] hGLP-2(1-33)-NH—CH2—((CH2)2O)3—(CH2)3—NHC(O)—CH2—O—CH2—C(O)—NH2] (H-HGDGSFSDE[Nle][dF]TILDLLAARDFINWLIQTKITD-X2)",0.28 mL/kg/min
